Measurements taken from ChEMBL document CHEMBL3352031, “Discovery of diamine-linked 17-aroylamido-17-demethoxygeldanamycins as potent Hsp90 inhibitors” (Eur J Med Chem, 2014).
pIC50: −log10 of the molar value. Calls of active or inactive are those of the source. The calls are words filed in the database; no cut-off is given here.

What was measured:
Mus musculus [1] = assay: Hepatotoxicity in Kunming mouse assessed as serum alanine aminotransferase level at 10 mg/kg, iv (reference value: 60.7 +/- 6.9U/L); type: toxicity, organism-based; set-up: dose 10 mg/kg, route intravenous; details: in vivo
[2] = biological target: Heat shock protein HSP 90-alpha (Homo sapiens, UniProt P07900); assay: Inhibition of GA-FITC binding to human recombinant Hsp90alpha incubated for 5 hrs by fluorescence polarization assay
MDA-MB-231 [3] = assay: cells; details: Homo sapiens, MDA-MB-231, 72 h
Description: Cytotoxicity against human MDA-MB-231 cells after 72 hrs by MTT assay

Mus musculus [4] = assay: Hepatotoxicity in Kunming mouse assessed as serum aspartate aminotransferase level at 10 mg/kg, iv (reference value: 197.2 +/- 11.2 U/L); type: toxicity, organism-based; set-up: dose 10 mg/kg, route intravenous; details: in vivo
HepG2 = assay: cells; details: Homo sapiens, HepG2, 72 h
Description: Cytotoxicity against human HepG2 cells after 72 hrs by MTT assay

A549 = assay: cells; details: Homo sapiens, A549, 72 h
Description: Cytotoxicity against human A549 cells after 72 hrs by MTT assay

MDA-MB-231 [5] = assay: Antitumor activity against human MDA-MB-231 cells xenografted in athymic nude mouse assessed as reduction in tumor weight at 10 mg/kg, iv dosed every 3 day for 15 consecutive days; type: functional
HUVEC = assay: cells; details: Homo sapiens, 72 h
Description: Cytotoxicity against HUVEC cells after 72 hrs by MTT assay

[6] = biological target: T1, Heat shock protein HSP90 (Homo sapiens) (UniProt P07900+P08238); assay: Inhibition Hsp90 in human MDA-MB 231 cells assessed as reduction in AKT protein level at 0.5 and 5 uM incubated for 24 hrs by Western blot method; type: cell-based
[7] = biological target: T1, Heat shock protein HSP90 (Homo sapiens); assay: Inhibition Hsp90 in human MDA-MB 231 cells assessed as reduction in HER2 protein level at 0.5 and 5 uM incubated for 24 hrs by Western blot method; type: cell-based
cells [8] = details: Homo sapiens, L02, 72 h
Description: Cytotoxicity against human HL7702 cells after 72 hrs by MTT assay

[9] = Safety index, ratio of IC50 for 17-AAG to IC50 for test compound against human HL7702 cells after 72 hrs by MTT assay; type: cell-based, L02; details: read-out: Ratio IC50
[10] = biological target: T1, Heat shock protein HSP90 (Homo sapiens); assay: Inhibition Hsp90 in human MDA-MB 231 cells assessed as reduction in EGFR protein level at 0.5 and 5 uM incubated for 24 hrs by Western blot method; type: cell-based
A-431 = assay: cells; details: Homo sapiens, A-431, 72 h
Description: Cytotoxicity against human A431 cells after 72 hrs by MTT assay

cells [11] = details: Homo sapiens, BGC-823, 72 h
Description: Cytotoxicity against human BGC823 cells after 72 hrs by MTT assay

[12] = Safety index, ratio of IC50 for 17-AAG to IC50 for test compound against HUVEC cells after 72 hrs by MTT assay; type: ADME, cell-based; details: human, read-out: Ratio IC50
[13] = biological target: T1, Heat shock protein HSP90 (Homo sapiens); assay: Inhibition Hsp90 in human MDA-MB 231 cells assessed as reduction in CDK4 protein level at 0.5 and 5 uM incubated for 24 hrs by Western blot method; type: cell-based
[14] = Safety index, ratio of IC50 for GA to IC50 for test compound against HUVEC cells after 72 hrs by MTT assay; type: cell-based; details: human, read-out: Ratio IC50
[15] = Safety index, ratio of IC50 for GA to IC50 for test compound against human HL7702 cells after 72 hrs by MTT assay; type: ADME, cell-based, L02; details: read-out: Ratio IC50
HeLa = assay: cells; details: Homo sapiens, 72 h
Description: Cytotoxicity against human HeLa cells after 72 hrs by MTT assay

MDA-MB-231 [16] = assay: Antitumor activity against human MDA-MB-231 cells xenografted in athymic nude mouse assessed as tumor growth inhibition at 10 mg/kg, iv dosed every 3 day for 15 consecutive days; type: functional; details: MDA-MB-231, 72 h, read-out: TGI
SW480 = assay: cells; details: Homo sapiens, SW480, 72 h
Description: Cytotoxicity against human SW480 cells after 72 hrs by MTT assay

## COc1cc(/C=C/C(=O)NCCCCNC2=C3C[C@@H](C)C[C@H](OC)[C@H](O)[C@@H](C)/C=C(\C)[C@H](OC(N)=O)[C@@H](OC)/C=C\C=C(/C)C(=O)NC(=CC2=O)C3=O)ccc1O
Mus musculus [1]
  Activity: 75.3 U/L
[2]
  pIC50: 6.01
MDA-MB-231 [3]
  pIC50: 6.26
Mus musculus [4]
  Activity: 224.8 U/L

## COc1cc(/C=C/C(=O)NCCCCCCNC2=C3C[C@@H](C)C[C@H](OC)[C@H](O)[C@@H](C)/C=C(\C)[C@H](OC(N)=O)[C@@H](OC)/C=C\C=C(/C)C(=O)NC(=CC2=O)C3=O)cc(OC)c1OC
HepG2
  pIC50: 6.25
A549
  pIC50: 6.56
Mus musculus [1]
  Activity: 40.4 U/L
MDA-MB-231 [5]
  T/C: 21%
HUVEC
  pIC50: 5.87
[6]
  inhibition: Active
[7]
  inhibition: Active
Cells [8]
  pIC50: 5.31
[9]
  selectivity ratio at 72 h: 50
[2]
  pIC50: 6.54
[10]
  inhibition: Active
A-431
  pIC50: 6.11
Cells [11]
  pIC50: 6.28
[12]
  selectivity ratio at 72 h: 5
[13]
  inhibition: Active
[14]
  selectivity ratio at 72 h: 68
[15]
  selectivity ratio at 72 h: 35
HeLa
  pIC50: 6.55
MDA-MB-231 [16]
  inhibition in vivo at 10 mg/kg: 81%
MDA-MB-231 [3]
  pIC50: 6.72
Mus musculus [4]
  Activity: 181 U/L
SW480
  pIC50: 6.10

## C=CCNC1=C2C[C@@H](C)C[C@H](OC)[C@H](O)[C@@H](C)/C=C(\C)[C@H](OC(N)=O)[C@@H](OC)/C=C\C=C(/C)C(=O)NC(=CC1=O)C2=O [TANESPIMYCIN]
HepG2
  pIC50: 7.04
A549
  pIC50: 7.09
Mus musculus [1]
  Activity: 66.6 U/L
MDA-MB-231 [5]
  T/C: 28%
HUVEC
  pIC50: 6.55
Cells [8]
  pIC50: 7.00
A-431
  pIC50: 7.05
Cells [11]
  pIC50: 6.07
HeLa
  pIC50: 6.89
MDA-MB-231 [16]
  inhibition in vivo at 10 mg/kg: 73%
MDA-MB-231 [3]
  pIC50: 6.55
Mus musculus [4]
  Activity: 237.4 U/L
SW480
  pIC50: 6.24

## COC1=C2C[C@@H](C)C[C@H](OC)[C@H](O)[C@@H](C)/C=C(\C)[C@H](OC(N)=O)[C@@H](OC)/C=C\C=C(/C)C(=O)NC(=CC1=O)C2=O [GELDANAMYCIN]
Mus musculus [1]
  Activity: 273 U/L
Mus musculus [4]
  Activity: 317.2 U/L

## COc1cc(/C=C/C(=O)N2CCC(CNC3=C4C[C@@H](C)C[C@H](OC)[C@H](O)[C@@H](C)/C=C(\C)[C@H](OC(N)=O)[C@@H](OC)/C=C\C=C(/C)C(=O)NC(=CC3=O)C4=O)CC2)ccc1O
Mus musculus [1]
  Activity: 148.6 U/L
[2]
  pIC50: 5.74
MDA-MB-231 [3]
  pIC50: 6.03
Mus musculus [4]
  Activity: 260.8 U/L

## CO[C@H]1/C=C\C=C(/C)C(=O)NC2=CC(=O)C(NCCCCCCNC(=O)/C=C/c3ccc(C(F)(F)F)cc3)=C(C[C@@H](C)C[C@H](OC)[C@H](O)[C@@H](C)/C=C(\C)[C@@H]1OC(N)=O)C2=O
MDA-MB-231 [3]
  pIC50: < 5.00

## COc1cc(/C=C/C(=O)NCCCCCCNC2=C3C[C@@H](C)C[C@H](OC)[C@H](O)[C@@H](C)/C=C(\C)[C@H](OC(N)=O)[C@@H](OC)/C=C\C=C(/C)C(=O)NC(=CC2=O)C3=O)ccc1O
Mus musculus [1]
  Activity: 72.7 U/L
[2]
  pIC50: 6.33
MDA-MB-231 [3]
  pIC50: 6.57
Mus musculus [4]
  Activity: 199.3 U/L

## COc1ccccc1/C=C/C(=O)NCCCCCCNC1=C2C[C@@H](C)C[C@H](OC)[C@H](O)[C@@H](C)/C=C(\C)[C@H](OC(N)=O)[C@@H](OC)/C=C\C=C(/C)C(=O)NC(=CC1=O)C2=O
MDA-MB-231 [3]
  pIC50: 5.48

## COc1ccc(/C=C/C(=O)NCCCCCCNC2=C3C[C@@H](C)C[C@H](OC)[C@H](O)[C@@H](C)/C=C(\C)[C@H](OC(N)=O)[C@@H](OC)/C=C\C=C(/C)C(=O)NC(=CC2=O)C3=O)cc1OC
Mus musculus [1]
  Activity: 52.8 U/L
[2]
  pIC50: 6.39
MDA-MB-231 [3]
  pIC50: 6.52
Mus musculus [4]
  Activity: 193.4 U/L
